Assay results taken from BindingDB's records for doi:10.1016/j.ejmech.2021.113204 (Shandong University, 2021).

What was measured:
[1] = Inhibition of reverse transcriptase F227L/V106A double mutant in HIV-1 infected in human MT4 cells assessed as reduction in virus-induced cytopathic effect incubated for 5 days by MTT assay
[2] = Inhibition of reverse transcriptase L100I mutant in HIV-1 infected in human MT4 cells assessed as reduction in virus-induced cytopathic effect incubated for 5 days by MTT assay
[3] = Inhibition of reverse transcriptase Y188L mutant in HIV-1 infected in human MT4 cells assessed as reduction in virus-induced cytopathic effect incubated for 5 days by MTT assay
[4] = Inhibition of reverse transcriptase E138K mutant in HIV-1 infected in human MT4 cells assessed as reduction in virus-induced cytopathic effect incubated for 5 days by MTT assay
[5] = Inhibition of reverse transcriptase K103N mutant in HIV-1 infected in human MT4 cells assessed as reduction in virus-induced cytopathic effect incubated for 5 days by MTT assay

| Compound | EC50 [1] | EC50 [2] | EC50 [3] | EC50 [4] | EC50 [5] |
| --- | --- | --- | --- | --- | --- |
| Cc1cc(/C=C/C#N)cc(C)c1Oc1nc(Nc2ccc(CN3CCN(S(N)(=O)=O)CC3)cc2)nc2ccsc12 | 0.175 µM | 0.043 µM | 0.544 µM | 0.026 µM | – |
| Cc1cc(/C=C/C#N)cc(C)c1Oc1nc(Nc2ccc(CN3CCN(S(C)(=O)=O)CC3)cc2)nc2ccsc12 | 2.2 µM | 1.56 µM | > 20.7 µM | 0.983 µM | 0.356 µM |
| Cc1cc(/C=C/C#N)cc(C)c1Oc1nc(Nc2ccc(CN3CCN(S(N)(=O)=O)CC3)cc2)nc2sccc12 | 0.369 µM | 0.015 µM | 0.877 µM | 0.025 µM | 0.007 µM |
| Cc1cc(/C=C/C#N)cc(C)c1Oc1nc(Nc2ccc(CN3CCN(S(C)(=O)=O)CC3)cc2)nc2sccc12 | 1.64 µM | 0.387 µM | 9.41 µM | 0.162 µM | 0.054 µM |
| Cc1cc(/C=C/C#N)cc(C)c1Oc1nc(Nc2ccc(N3CCN(S(N)(=O)=O)CC3)cc2)nc2ccsc12 | 0.203 µM | 0.767 µM | 23.1 µM | 0.043 µM | 0.021 µM |
| Cc1cc(/C=C/C#N)cc(C)c1Oc1nc(Nc2ccc(N3CCN(S(C)(=O)=O)CC3)cc2)nc2ccsc12 | 0.285 µM | 0.938 µM | 5.11 µM | 0.088 µM | 0.056 µM |
| Cc1cc(/C=C/C#N)cc(C)c1Oc1nc(Nc2ccc(N3CCN(S(N)(=O)=O)CC3)cc2)nc2sccc12 | 0.331 µM | 0.409 µM | 10.1 µM | 0.05 µM | 0.031 µM |
| Cc1cc(/C=C/C#N)cc(C)c1Oc1nc(Nc2ccc(N3CCN(S(C)(=O)=O)CC3)cc2)nc2sccc12 | 1.95 µM | 3.32 µM | 68.4 µM | 0.405 µM | 0.219 µM |
| Cc1cc(/C=C/C#N)cc(C)c1Oc1nc(Nc2ccc(N3CCCC(NS(N)(=O)=O)C3)cc2)nc2ccsc12 (stereo unspecified) | 0.381 µM | 1.66 µM | 6.75 µM | 0.123 µM | 0.102 µM |
| Cc1cc(/C=C/C#N)cc(C)c1Oc1nc(Nc2ccc(N3CCCC(NS(C)(=O)=O)C3)cc2)nc2ccsc12 (stereo unspecified) | 16.8 µM | 6.82 µM | 150 µM | 1.28 µM | – |
| Cc1cc(/C=C/C#N)cc(C)c1Oc1nc(Nc2ccc(N3CCCC(NS(N)(=O)=O)C3)cc2)nc2sccc12 (stereo unspecified) | 3.64 µM | 2.33 µM | 88.2 µM | 0.621 µM | 0.45 µM |
| Cc1cc(/C=C/C#N)cc(C)c1Oc1nc(Nc2ccc(N3CCCC(NS(C)(=O)=O)C3)cc2)nc2sccc12 (stereo unspecified) | – | 8.52 µM | – | 4.27 µM | 1.36 µM |
